Reference: patent US10675293B2, “Nucleoside agents for the reduction of the deleterious activity of extended nucleotide repeat containing genes” (The Board of Trustees of the Leland Stanford Junior …, priority 2015, dated 2020)
“Also recorded” adds a separate entry of the source.

What was measured:
[1] = system: total Huntingtin protein; assay: Western blot of total HTT in Huntington's disease patient iPSC ND36999; type: cell-based, human; conditions: iPSC with 180 CAG repeats, 24 hr
Description: (§1) Cell samples were lysed in 30 mM Tris-HCl, pH 8.0, 5 mM NaCl, 0.1% Triton X-100 for 10 min on ice. The supernatants from spinning (14 k rpm for 10 min) were collected. The protein concentrations were determined by BCA assay (Pierce, ThermoFisher). Equal amounts of protein were loaded onto 4-12% gel. After electrophoresis, the gels were transferred to nitrocellulose membranes by wet transfer at 35V for 16 hr. The protein level of mutant HTT, total HTT and tubulin were determined by immunoblotting with anti-poly Glutamine (MAB1574 from Millipore), anti-Huntingtin protein (MAB2166 from Millipore) and anti-alpha tubulin (AJ1034a from ABGENT). Blots were imaged on a Li-Cor Odyssey infrared imager. The bands intensities were determined by Li-Cor Odyssey software.
(§2) To test whether the nucleoside 6-Azauridine (HD101) and (−)-6-Azauridine 2′,3′,5′-triacetate (HD106) can affect the expression of proteins with long polyQ domains, one iPSC (induced pluripotent stem cell) line ND36999, which was derived from a Huntington's disease patient who carries one allele of mutant htt gene with 180 CAG repeats, was purchased from the Coriell Institute. The iPSCs were plated into a 24-well plate coated with Matrigel. […] Cells were lysed and the protein concentrations were determined by BCA assay. […] The image (FIG. 10) was taken and the quantification was made by Li-Cor Odyssey imaging system.

[2] = system: 21-VS cells (HA-Venus); assay: Control fluorescence of 21-VS stable cells expressing intact Venus; type: cell-based; conditions: higher concentration, where BiFC reduction has reached its plateau
Description: The HA-Supt4h-YC and FLAG-NGN-YN fragments were amplified by PCR using plasmid constructs described above and sub-cloned individually into the pTRE-tight-BI vector (Clontech Laboratories), which contain a bi-directional CMV promoter under the control of tetracycline. The coding sequence of yellow fluorescence protein Venus with a HA-epitope in its N-terminus was PCR-amplified and cloned into the vector to generate pTRE-HA-Venus.
Tet-on HeLa cells were transfected with linearized pTRE-HA-Supt4h-VC-Flag-NGN-VN plasmid construct using LipofectAMINE 2000 (Invitrogen). After transfection, cells were cultured initially in growth medium containing puromycin (1 μg/ml) and then selected for clones that show YFP fluorescence in the presence of tetracycline (4 μg/ml). The stable line having the strongest fluorescence signal was isolated and designated as 2-PN4. […]
Stable lines 2-PN4 and 21-VS were pre-cultured in 6-well plates, followed by an incubation of Doxycycline (4 μg/ml) together with various concentrations of chemical compounds for 24 hr. Cells were washed with PBS (Sigma) and monitored by microscope (20× magnification). Photos were taken using Nikon D500 camera with a setting of ISO 1600, shutter 1/200 for the light images, and shutter ½ for the fluorescence images. […] The average of overall fluorescence signal was determined and compared to the one observed in DMSO-treated control sample. […]

[3] = system: eGFPC1; assay: GFP reporter in HEK293 cells, eGFPC1 without polyQ; type: cell-based; conditions: higher concentration, 48 hours after transfection
Description: HEK293 cells were transiently transfected with the above mentioned GFP constructs. Five hours after transfection, cells were split among the wells of a 24-well plate and various concentrations of HD101 were added into the wells. 48 hours after transfection, cells were washed with PBS, fixed with 4% paraformaldehyde, and then nuclear stained with DAPI. The cell images were taken by fluorescent microscope (FIG. 9A) and the GFP and DAPI intensity of each field were quantitated using software Image Pro 6.2.

[4] = biological target: T1, Supt4h-YC / Supt5h NGN-YN interaction (Homo sapiens, UniProt O00267+P63272); assay: Bimolecular fluorescence complementation (BiFC) assay in 2-PN4 stable cells; type: cell-based
T1 construct: NGN-YN is a genetic engineered protein in which Supt5h NGN domain is fused to YFP YN; expressed in transfected cells
Description: Human Supt4h and Supt5hNGN were fused in-frame with the YC and YN respectively. The YN and YC represent the N- and C-terminal domain of yellow fluorescent protein Venus. To prevent a change in protein folding caused by the conjugation of two polypeptides (Kerppola, “Design and implementation of bimolecular fluorescence complementation (BiFC) assays for the visualization of protein interactions in living cells,” Nature protocols (2006) 1:1278-1286), a protein linker containing additional 10 amino acid residues was included in the fusion protein. Also, extra amino acids GSHM were incorporated into the Supt5hNGN to increase its protein stability (Wenzel et al., “Crystal structure of the human transcription elongation factor DSIF hSpt4 subunit in complex with the hSpt5 dimerization interface,” The Biochemical journal (2010) 425:373-380). Supt4h, NGN, YC, and YN were amplified by PCR to generate DNA fragments containing the nucleotide sequence of protein linker. Supt4h and NGN PCR products then were mixed with the PCR product of YN or YC for secondary overlapping PCR. Finally, the resulting Supt4h-YC and NGN-YN DNA fragment was cloned into plasmid vector pcDNA3-HA and pFLAG-CMV-2 respectively.
Tet-on HeLa cells were transfected with linearized pTRE-HA-Supt4h-VC-Flag-NGN-VN plasmid construct using LipofectAMINE 2000 (Invitrogen). After transfection, cells were cultured initially in growth medium containing puromycin (1 μg/ml) and then selected for clones that show YFP fluorescence in the presence of tetracycline (4 μg/ml). The stable line having the strongest fluorescence signal was isolated and designated as 2-PN4. Likewise, 21-VS stable line was created using pTRE-HA-Venus.
Stable lines 2-PN4 and 21-VS were pre-cultured in 6-well plates, followed by an incubation of Doxycycline (4 μg/ml) together with various concentrations of chemical compounds for 24 hr. Cells were washed with PBS (Sigma) and monitored by microscope (20× magnification). Photos were taken using Nikon D500 camera with a setting of ISO 1600, shutter 1/200 for the light images, and shutter ½ for the fluorescence images. For quantification of fluorescence intensity, 5 photos with similar cell number were taken and the fluorescence signal was measured by Metamorph software individually. The average of overall fluorescence signal was determined and compared to the one observed in DMSO-treated control sample.
For the purpose of high-throughput drug screening, based on the BiFC method as mentioned above, we have created a stable cell line that co-expresses NGN-YN and Supt4h-YC under the control of a tet-on inducible promoter. […] If the complementation that is driven by NGN and Supt4h interaction is inhibited by a given test compound, the de novo YFP fluorescence signal is affected. […]

[5] = system: mutant Huntingtin protein; assay: Western blot of mutant HTT in Huntington's disease patient iPSC ND36999; type: cell-based, human; conditions: iPSC with 180 CAG repeats, 24 hr
Description: as §1, §2

**Q.** For `O=c1cnn([C@@H]2O[C@H](CO)[C@@H](O)[C@H]2O)c(=O)[nH]1` [HD101, 6-Azauridine], which “total Huntingtin protein expression level” value [1] is on record?
**A.** little effect

**Q.** What about the “fluorescence of 21-VS cells” value [2] of the same compound?
**A.** markedly affected

**Q.** What about the “eGFPC1 expression (GFP intensity normalized with DAPI)” value [3] of the same compound?
**A.** minimum effect

**Q.** What about the “reduction of BiFC signal compared to mock controls” value ([4]; 0.02 μM, 24 hr) of the same compound?
**A.** approximately 70%

**Q.** And the “BiFC fluorescence signal of 2-PN4 cells” value ([4]; various concentrations, 24 hr with Doxycycline 4 μg/ml)?
**A.** inhibits the fluorescence signal of BiFC

**Q.** What about the “mutant Huntingtin protein level” value [5] of the same compound?
**A.** preferentially decrease mutant Huntingtin protein in a dose dependent manner; also recorded: reduced mutant huntingtin expression in a dose dependent manner
